Assay results from article PMC8217170, “Phase Ib dose-escalation study of the hypoxia-modifier Myo-inositol trispyrophosphate in patients with hepatopancreatobiliary tumors” (Nature Communications, 2021).

Experiment: Plasma levels and pharmacokinetics of intravenous ITPP

Structure (SMILES): O=P1(O)OC2C3OP(=O)(O)OP(=O)(O)OC3C3OP(=O)(O)OP(=O)(O)OC3C2OP(=O)(O)O1 (centres unmarked) [ITPP, Myo-inositol trispyrophosphate]
- Tmax (cohort 1, 1866 mg/m2): 6.0 h
- VSS (cohort 1, 1866 mg/m2): 11.0 L
- ITPP plasma levels: Concentration (cohort 1, patient 2, day 1, hour 0, sample 1_1_1): 0 µg/mL
- ITPP plasma levels: Concentration (cohort 1, patient 2, day 1, hour 3, sample 1_1_2): 71.4 µg/mL
- ITPP plasma levels: Concentration (cohort 1, patient 2, day 1, hour 6, sample 1_1_3): 64.4 µg/mL
- ITPP plasma levels: Concentration (cohort 1, patient 2, day 1, hour 8.5, sample 1_1_4): 37.7 µg/mL
- ITPP plasma levels: Concentration (cohort 1, patient 2, day 1, hour 9, sample 1_1_5): 27.2 µg/mL
- ITPP plasma levels: Concentration (cohort 1, patient 2, day 2, hour 0, sample 1_2_1): 0 µg/mL
- ITPP plasma levels: Concentration (cohort 1, patient 2, day 2, hour 9, sample 1_2_5): 31.6 µg/mL
- ITPP plasma levels: Concentration (cohort 1, patient 2, day 3, hour 0, sample 1_3_1): 0 µg/mL
- ITPP plasma levels: Concentration (cohort 1, patient 2, day 3, hour 9, sample 1_3_5): 28.7 µg/mL
- ITPP plasma levels: Concentration (cohort 1, patient 4, day 2, hour 9, sample 5_2_5): 32.7 µg/mL
- ITPP plasma levels: Concentration (cohort 1, patient 4, day 3, hour 0, sample 5_3_1): 0 µg/mL
- ITPP plasma levels: Concentration (cohort 1, patient 4, day 3, hour 9, sample 5_3_5): 30.4 µg/mL
- ITPP plasma levels: Concentration (cohort 1, patient 4, day 4, hour 0, sample 5_4_1): 0 µg/mL
- ITPP plasma levels: Concentration (cohort 1, patient 4, day 4, hour 9, sample 5_4_5): 28.7 µg/mL
- ITPP plasma levels: Concentration (cohort 1, patient 4, day 5, hour 0, sample 5_5_1): 0 µg/mL
- ITPP plasma levels: Concentration (cohort 1, patient 4, day 5, hour 3, sample 5_5_2): 33.3 µg/mL
- ITPP plasma levels: Concentration (cohort 1, patient 4, day 5, hour 6, sample 5_5_3): 38.4 µg/mL
- ITPP plasma levels: Concentration (cohort 1, patient 4, day 5, hour 8.5, sample 5_5_4): 40.9 µg/mL
- ITPP plasma levels: Concentration (cohort 1, patient 4, day 5, hour 9, sample 5_5_5): 29.6 µg/mL
- ITPP plasma levels: Concentration (cohort 1, patient 4, day 5, hour 10, sample 5_5_6): 22 µg/mL
- ITPP plasma levels: Concentration (cohort 1, patient 4, day 6, hour 0, sample 5_6_1): 0 µg/mL
- ITPP plasma levels: Concentration (cohort 1, patient 4, day 6, hour 9, sample 5_6_5): 32.4 µg/mL
- ITPP plasma levels: Concentration (cohort 1, patient 4, day 7, hour 0, sample 5_7_1): 0 µg/mL
- ITPP plasma levels: Concentration (cohort 1, patient 4, day 7, hour 9, sample 5_7_5): 36.7 µg/mL
- ITPP plasma levels: Concentration (cohort 1, patient 4, day 8, hour 0, sample 5_8_1): 0 µg/mL
- ITPP plasma levels: Concentration (cohort 1, patient 4, day 8, hour 9, sample 5_8_5): 31.5 µg/mL
- ITPP plasma levels: Concentration (cohort 1, patient 4, day 9, hour 0, sample 5_9_1): 0 µg/mL
- ITPP plasma levels: Concentration (cohort 1, patient 4, day 9, hour 3, sample 5_9_2): 38.7 µg/mL
- ITPP plasma levels: Concentration (cohort 1, patient 4, day 9, hour 6, sample 5_9_3): 43.5 µg/mL
- ITPP plasma levels: Concentration (cohort 1, patient 4, day 9, hour 8.5, sample 5_9_4): 42.1 µg/mL
- ITPP plasma levels: Concentration (cohort 1, patient 4, day 9, hour 9, sample 5_9_5): 26.1 µg/mL
- AUC (cohort 2, 3732 mg/m2): 847.4 mg·h/L
- AUMC (cohort 2, 3732 mg/m2): 4925.6 h2*mg/L
- CL (cohort 2, 3732 mg/m2): 3.8 L/h
- Clast (cohort 2, 3732 mg/m2): 55.8 mg/L
- Cmax (cohort 2, 3732 mg/m2): 120.6 mg/L
- Cmin (cohort 2, 3732 mg/m2): 0.0 mg/L
- Elimination rate λz (cohort 2, 3732 mg/m2): 0.4 h⁻¹
- Half life/T0.5 (cohort 2, 3732 mg/m2): 1.8 h
- MRT (cohort 2, 3732 mg/m2): 1.8 h
- Tlast (cohort 2, 3732 mg/m2): 10.0 h
- Tmax (cohort 2, 3732 mg/m2): 6.0 h
- VSS (cohort 2, 3732 mg/m2): 10.5 L
- ITPP plasma levels: Concentration (cohort 2, patient 5, day 1, hour 0, sample 6_1_1): 0 µg/mL
- ITPP plasma levels: Concentration (cohort 2, patient 5, day 1, hour 3, sample 6_1_2): 81 µg/mL
- ITPP plasma levels: Concentration (cohort 2, patient 5, day 1, hour 6, sample 6_1_3): 102 µg/mL
- ITPP plasma levels: Concentration (cohort 2, patient 5, day 1, hour 8.5, sample 6_1_4): 86.1 µg/mL
- ITPP plasma levels: Concentration (cohort 2, patient 5, day 1, hour 9, sample 6_1_5): 66.5 µg/mL
- ITPP plasma levels: Concentration (cohort 2, patient 5, day 1, hour 10, sample 6_1_6): 42.7 µg/mL
- ITPP plasma levels: Concentration (cohort 2, patient 5, day 2, hour 0, sample 6_2_1): 0 µg/mL
- ITPP plasma levels: Concentration (cohort 2, patient 5, day 2, hour 9, sample 6_2_5): 78.6 µg/mL
- ITPP plasma levels: Concentration (cohort 2, patient 5, day 3, hour 0, sample 6_3_1): 0 µg/mL
- ITPP plasma levels: Concentration (cohort 2, patient 5, day 3, hour 9, sample 6_3_5): 61.7 µg/mL
- ITPP plasma levels: Concentration (cohort 2, patient 5, day 4, hour 0, sample 6_4_1): 0 µg/mL
- ITPP plasma levels: Concentration (cohort 2, patient 5, day 4, hour 9, sample 6_4_5): 81.8 µg/mL
- ITPP plasma levels: Concentration (cohort 2, patient 5, day 5, hour 0, sample 6_5_1): 0 µg/mL
- ITPP plasma levels: Concentration (cohort 2, patient 5, day 5, hour 3, sample 6_5_2): 90.1 µg/mL
- ITPP plasma levels: Concentration (cohort 2, patient 5, day 5, hour 6, sample 6_5_3): 107 µg/mL
- ITPP plasma levels: Concentration (cohort 2, patient 5, day 5, hour 8.5, sample 6_5_4): 81.8 µg/mL
- ITPP plasma levels: Concentration (cohort 2, patient 5, day 5, hour 9, sample 6_5_5): 62.8 µg/mL
- ITPP plasma levels: Concentration (cohort 2, patient 5, day 5, hour 10, sample 6_5_6): 38.5 µg/mL
- ITPP plasma levels: Concentration (cohort 2, patient 5, day 6, hour 0, sample 6_6_1): 0 µg/mL
- ITPP plasma levels: Concentration (cohort 2, patient 5, day 6, hour 9, sample 6_6_5): 76.4 µg/mL
- ITPP plasma levels: Concentration (cohort 2, patient 5, day 7, hour 0, sample 6_7_1): 0 µg/mL
- ITPP plasma levels: Concentration (cohort 2, patient 5, day 7, hour 9, sample 6_7_5): 65.9 µg/mL
- ITPP plasma levels: Concentration (cohort 2, patient 5, day 8, hour 0, sample 6_8_1): 0 µg/mL
- ITPP plasma levels: Concentration (cohort 2, patient 5, day 8, hour 9, sample 6_8_5): 73.8 µg/mL
- ITPP plasma levels: Concentration (cohort 2, patient 5, day 9, hour 0, sample 6_9_1): 0 µg/mL
- ITPP plasma levels: Concentration (cohort 2, patient 5, day 9, hour 3, sample 6_9_2): 81.2 µg/mL
- ITPP plasma levels: Concentration (cohort 2, patient 5, day 9, hour 6, sample 6_9_3): 110 µg/mL
- ITPP plasma levels: Concentration (cohort 2, patient 5, day 9, hour 8.5, sample 6_9_4): 89.6 µg/mL
- ITPP plasma levels: Concentration (cohort 2, patient 5, day 9, hour 9, sample 6_9_5): 58.7 µg/mL
- ITPP plasma levels: Concentration (cohort 2, patient 6, day 1, hour 0, sample 7_1_1): 0 µg/mL
- ITPP plasma levels: Concentration (cohort 2, patient 6, day 1, hour 3, sample 7_1_2): 84.8 µg/mL
- ITPP plasma levels: Concentration (cohort 2, patient 6, day 1, hour 6, sample 7_1_3): 106 µg/mL
- ITPP plasma levels: Concentration (cohort 2, patient 6, day 1, hour 8.5, sample 7_1_4): 100 µg/mL
- ITPP plasma levels: Concentration (cohort 2, patient 6, day 1, hour 9, sample 7_1_5): 77.7 µg/mL
- ITPP plasma levels: Concentration (cohort 2, patient 6, day 1, hour 10, sample 7_1_6): 55.2 µg/mL
- ITPP plasma levels: Concentration (cohort 2, patient 6, day 2, hour 0, sample 7_2_1): 0 µg/mL
- ITPP plasma levels: Concentration (cohort 2, patient 6, day 2, hour 9, sample 7_2_5): 66.6 µg/mL
- ITPP plasma levels: Concentration (cohort 2, patient 6, day 3, hour 0, sample 7_3_1): 0 µg/mL
- ITPP plasma levels: Concentration (cohort 2, patient 6, day 3, hour 9, sample 7_3_5): 65.2 µg/mL
- ITPP plasma levels: Concentration (cohort 2, patient 6, day 4, hour 0, sample 7_4_1): 0 µg/mL
- ITPP plasma levels: Concentration (cohort 2, patient 6, day 4, hour 9, sample 7_4_5): 67.1 µg/mL
- ITPP plasma levels: Concentration (cohort 2, patient 6, day 5, hour 0, sample 7_5_1): 0 µg/mL
- ITPP plasma levels: Concentration (cohort 2, patient 6, day 5, hour 3, sample 7_5_2): 78.6 µg/mL
- ITPP plasma levels: Concentration (cohort 2, patient 6, day 5, hour 6, sample 7_5_3): 98 µg/mL
- ITPP plasma levels: Concentration (cohort 2, patient 6, day 5, hour 8.5, sample 7_5_4): 82.7 µg/mL
- ITPP plasma levels: Concentration (cohort 2, patient 6, day 5, hour 9, sample 7_5_5): 41.4 µg/mL
- ITPP plasma levels: Concentration (cohort 2, patient 6, day 5, hour 10, sample 7_5_6): 40.6 µg/mL
- ITPP plasma levels: Concentration (cohort 2, patient 6, day 6, hour 0, sample 7_6_1): 0 µg/mL
- ITPP plasma levels: Concentration (cohort 2, patient 6, day 6, hour 9, sample 7_6_5): 60.1 µg/mL
- ITPP plasma levels: Concentration (cohort 2, patient 6, day 7, hour 0, sample 7_7_1): 0 µg/mL
- ITPP plasma levels: Concentration (cohort 2, patient 6, day 7, hour 9, sample 7_7_5): 72.5 µg/mL
- ITPP plasma levels: Concentration (cohort 2, patient 6, day 8, hour 0, sample 7_8_1): 0 µg/mL
- ITPP plasma levels: Concentration (cohort 2, patient 6, day 8, hour 9, sample 7_8_5): 75.7 µg/mL
- ITPP plasma levels: Concentration (cohort 2, patient 6, day 9, hour 0, sample 7_9_1): 0 µg/mL
- ITPP plasma levels: Concentration (cohort 2, patient 6, day 9, hour 3, sample 7_9_2): 84.2 µg/mL
- ITPP plasma levels: Concentration (cohort 2, patient 6, day 9, hour 6, sample 7_9_3): 116 µg/mL
- ITPP plasma levels: Concentration (cohort 2, patient 6, day 9, hour 8.5, sample 7_9_4): 105 µg/mL
- ITPP plasma levels: Concentration (cohort 2, patient 6, day 9, hour 9, sample 7_9_5): 82 µg/mL
- ITPP plasma levels: Concentration (cohort 2, patient 6, day 9, hour 10, sample 7_9_6): 60.5 µg/mL
- ITPP plasma levels: Concentration (cohort 2, patient 7, day 1, hour 0, sample 8_1_1): 0 µg/mL
- ITPP plasma levels: Concentration (cohort 2, patient 7, day 1, hour 3, sample 8_1_2): 81.8 µg/mL
- ITPP plasma levels: Concentration (cohort 2, patient 7, day 1, hour 6, sample 8_1_3): 117 µg/mL
- ITPP plasma levels: Concentration (cohort 2, patient 7, day 1, hour 8.5, sample 8_1_4): 100 µg/mL
- ITPP plasma levels: Concentration (cohort 2, patient 7, day 1, hour 9, sample 8_1_5): 79.1 µg/mL
- ITPP plasma levels: Concentration (cohort 2, patient 7, day 1, hour 10, sample 8_1_6): 67.7 µg/mL
